From publication PMC12750388, “Coumarin-1,2,3-Triazole Conjugates as Molecular Scaffolds for the Selective Induction of ROS-Driven Apoptosis in Cancer Cells in the Development of Pyruvate Kinase M2 Inhibitors” (ACS Omega, 2025)

Tests used:
SCC-9 cell line = test: MTT cell viability assay, SCC-9; format: cell-based, human; settings: for IC50: MTT, 48 h; for SI SCC-9: IC50 human gingival fibroblast / IC50 SCC-9
Description: (§1) The viability of SCC cell lines and primary human fibroblast cells was evaluated using the MTT assay to determine half maximal inhibitory concentration (IC50). Briefly, cells were grown in triplicate in 96-well plates (5 × 10^3 cells/well) until confluence. Then the medium was removed, fresh medium was added, and the cells were returned to the incubator in the presence of different compounds. DMSO at the same concentrations was used as a 100% cell viability control. After 48 h, cells were incubated with 5 mg/mL MTT reagent (3-(4,5-dimethyl-2-thiazolyl)-2,5-diphenyl-2-H-tetrazolium bromide) (Sigma-Aldrich Co., St. Louis, MO, USA) for 3.5 h. After that, formazan crystals were dissolved in MTT solvent solution (DMSO/methanol 1:1 v/v), and the absorbance at 560 nm was evaluated using an EPOCH microplate spectrophotometer (BioTek Instruments, Winooski, VT, USA) with the background absorbance at 670 nm subtracted. Each of the 12 compounds (7a–7l) was tested at six different concentrations, ranging from 6.25 to 200 μM in cancer and normal cell lines. Control (carboplatin) was tested at six different concentrations ranging from 25 μM to 800 μM in cancer cells and from 50 μM to 1600 μM in normal cells.
(§2) Half-maximal inhibitory concentration (IC50) values were obtained from the MTT assay of at least three independent replicates through nonlinear regression analysis using GraphPad Prism 5.0 software (Intuitive Software for Science, San Diego, CA, USA). Data were presented as means ± standard deviation (SD). A log dose–response curve (inhibitor vs response) using the least-squares method was used to determine the IC50 and SD from the data. The selectivity index (SI) was calculated as the ratio between the IC50 in normal cells and the IC50 in cancer cells, obtained by dividing the IC50 of normal cells by the IC50 of cancer cells.

[1] = system: Primary Gingival Fibroblast; test: MTT cell viability assay, normal cells; format: cell-based, human; settings: for IC50: MTT, 48 h, normal cells; for Average SI: average of SI for SCC-9, SCC-4 and SCC-25 versus gingival fibroblast
Description: as §1, §2

SCC-25 = test: MTT cell viability assay, SCC-25; format: cell-based, human; settings: for IC50: MTT, 48 h; for SI SCC-25: IC50 human gingival fibroblast / IC50 SCC-25
Description: as §1, §2

SCC-4 = test: MTT cell viability assay, SCC-4; format: cell-based, human; settings: for IC50: MTT, 48 h; for SI SCC-4: IC50 human gingival fibroblast / IC50 SCC-4
Description: as §1, §2

SCC-9 cells = test: MTT cell viability with N-acetyl-L-cysteine pretreatment; format: cell-based, human; settings: SCC-9, 48 h; 7f 1 × IC50, menadione 20 μM
Description: The production of reactive oxygen species (ROS) was assessed by the detection of hydrogen peroxide (H2O2) using the ROS-Glo H2O2 assay kit (Promega Corporation, Madison, WI, USA; G8820). […] A plate with wells without cells was used as a control. Cells and cell-free wells remained in treatment at times of interest, and 2 h before completion of the times, well volumes were removed to reduce to 40 μL per well. Then the positive control of menadione (Sigma-Aldrich Co., St. Louis, MO, USA), a polycyclic aromatic ketone based on 1,4-naphthoquinone, was used to treat its respective well, and H2O2 substrate from the kit was added for all treatments, followed by the incubation of the plate for the remaining 2 h. Then the detection solution was added, and the plates remained at room temperature for 20 min, following the reading in the TD 20/20 luminometer (Turner Designs, Sunnyvale, CA, USA). The reading of bioluminescence detected is indicated as arbitrary units (a.u.). Additionally, the cell viability was assessed through pretreatment of cells with 10 mM N-acetyl-L-cysteine (NAC) (Sigma-Aldrich Co., St. Louis, MO, USA) for 2 h. […] At the end of the time, the MTT cell viability assay was performed.

erythrocytes = test: Hemolysis assay; format: cell-based; settings: human erythrocytes, 300 μM
Description: A hemolysis assay to evaluate surfactant effects of tested substances was performed using human blood approved by the Research Ethics Committee of Universidade Federal Fluminense (CAAE: 43134721.4.0000.5626). Erythrocytes are isolated upon three repeated centrifugation cycles at 1500 rpm for 15 min. Between each cycle of centrifugation, supernatant was removed, and a pH 7.5 PBS (phosphate-buffered saline) solution supplemented with 10 mM glucose was added to remove lysed erythrocytes. The number of cells was determined in an Automatic Cell Counter (Thermo Fisher, Waltham, MA, USA). Erythrocytes were then plated in 96-well plates at a concentration of 4 × 10^8 cells/well in triplicates, and 10 μL of compounds were added at a final concentration of 300 μM in PBS with glucose (final volume 100 μL). Ten μL of PBS was used as a negative control, and 10 μL of PBS with 0.1% Triton X-100 was used as a positive control. Data reading was performed with EPOCH (BioTek Instruments, Winooski, VT, USA) at an absorbance of 540 nm.

For CC(C)=CCC1=C(OCc2cn(CCOc3cc(=O)oc4ccccc34)nn2)C(=O)c2ccccc2C1=O [Compound 7d, 2-(3-Methylbut-2-en-1-yl)-3-((1-(2-((2-oxo-2H-chromen-4-yl)oxy)ethyl)-1H-1,2,3-triazol-4-yl)methoxy)naphthalene-1,4-dione], the IC50 (SCC-9 cell line; Homo sapiens, SCC-9) was > 150 µM.
In the case of CC(=O)OCc1cn(CCCOc2cc(=O)oc3ccccc23)nn1 [Compound 7h, (1-(3-((2-Oxo-2H-chromen-4-yl)oxy)propyl)-1H-1,2,3-triazol-4-yl)methyl acetate], the IC50 (SCC-9 cell line; Homo sapiens, SCC-9) is reported as > 200 µM.
O=C1C=C(NCc2cn(CCCOc3cc(=O)oc4ccccc34)nn2)C(=O)c2ccccc21 [Compound 7e, 2-(((1-(3-((2-Oxo-2H-chromen-4-yl)oxy)propyl)-1H-1,2,3-triazol-4-yl)methyl)amino) naphthalene-1,4-dione] was tested, and the IC50 (SCC-9 cell line; Homo sapiens, SCC-9) was > 150 µM.
For O=C1C=C(NCc2cn(CCOc3cc(=O)oc4ccccc34)nn2)C(=O)c2ccccc21 [Compound 7a, 2-(((1-(2-((2-Oxo-2H-chromen-4-yl)oxy)ethyl)-1H-1,2,3-triazol-4-yl)methyl)amino) naphthalene-1,4-dione], the IC50 (SCC-9 cell line; Homo sapiens, SCC-9) was > 200 µM.
For CCCCCCc1cn(CCCOc2cc(=O)oc3ccccc23)nn1 [Compound 7l, 4-(3-(4-Hexyl-1H-1,2,3-triazol-1-yl)propoxy)-2H-chromen-2-one], the IC50 (SCC-9 cell line; Homo sapiens, SCC-9) was > 150 µM.
In the case of O=c1cc(OCCn2cc(-c3ccccc3)nn2)c2ccccc2o1 [Compound 7i, 4-(2-(4-Phenyl-1H-1,2,3-triazol-1-yl)ethoxy)-2H-chromen-2-one], the IC50 (SCC-9 cell line; Homo sapiens, SCC-9) is reported as > 200 µM.
For O=c1cc(OCCCn2cc(COc3cc(=O)oc4ccccc34)nn2)c2ccccc2o1 [Compound 7g, 4-(3-(4-(((2-Oxo-2H-chromen-4-yl)oxy)methyl)-1H-1,2,3-triazol-1-yl)propoxy)-2H-chromen-2-one], the IC50 (SCC-9 cell line; Homo sapiens, SCC-9) was > 150 µM.
O=C1C=C(OCc2cn(CCOc3cc(=O)oc4ccccc34)nn2)C(=O)c2ccccc21 [Compound 7b, 2-((1-(2-((2-Oxo-2H-chromen-4-yl)oxy)ethyl)-1H-1,2,3-triazol-4-yl)methoxy) naphthalene-1,4-dione] was tested, and the IC50 (SCC-9 cell line; Homo sapiens, SCC-9) was > 200 µM.
In the case of CC(C)=CC1=C(OCc2cn(CCOc3cc(=O)oc4ccccc34)nn2)C(=O)c2ccccc2C1=O [Compound 7c, 2-(2-Methylprop-1-en-1-yl)-3-((1-(2-((2-oxo-2H-chromen-4-yl)oxy)ethyl)-1H-1,2,3-triazol-4-yl)methoxy)naphthalene-1,4-dione], the IC50 ([1]; Homo sapiens, Fibroblast) is reported as 30.9 µM, the “Average SI” value [1] is reported as 1.32 and the IC50 (SCC-25; Homo sapiens, SCC-25) is reported as 28.5 µM. For the same compound, the “SI SCC-25” value (SCC-25) was 1.08, the IC50 (SCC-9 cell line; Homo sapiens, SCC-9) was 28.9 µM and the “SI SCC-9” value (SCC-9 cell line) was 1.07. For the same compound, the IC50 (SCC-4; Homo sapiens, SCC-4) was 17 µM and the “SI SCC-4” value (SCC-4) was 1.82.
CCCCCCc1cn(CCOc2cc(=O)oc3ccccc23)nn1 [Compound 7j, 4-(2-(4-Hexyl-1H-1,2,3-triazol-1-yl)ethoxy)-2H-chromen-2-one] was tested, and the IC50 (SCC-9 cell line; Homo sapiens, SCC-9) was > 200 µM.
In the case of CC1=CC(=O)c2ccccc2C1=O [menadione, reference compound], the “cell viability in the presence of 10 mM N-acetyl-L-cysteine (NAC)” value (SCC-9 cells) is reported as “NAC protected cell death”.
With N.N.O=C([O-])C1(C(=O)[O-])CCC1.[Pt+2] [Carboplatin, reference compound] the IC50 [1] was 348 µM, the “Average SI” value [1] was 2.05 and the “hemolytic activity / membrane integrity” value (erythrocytes) was “neither carboplatin nor PBS affected the membrane integrity”. The “SI SCC-25” value (SCC-25) was 1.40, the IC50 (SCC-25) was 249 µM and the “SI SCC-9” value (SCC-9 cell line) was 2.31. For the same compound, the IC50 (SCC-9 cell line) was 150 µM, the “SI SCC-4” value (SCC-4) was 2.45 and the IC50 (SCC-4) was 142 µM.
